The test system of one experiment is recombinant NL4-3 virus (Renilla luciferase in nef, Gag P373S). Briefly: HIV Cell Culture Assay (luciferase reporter virus in MT-2 cells). It is filed as cell-based. Particulars: NL43. In outline:
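Inhibitor potency against the reporter virus comes from reduced luciferase activity in infected MT-2 cells exposed to a dilution series of compound over 4-5 days.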
`C=C(C)[C@@H]1CC[C@]2(C(=O)Nc3nc(C(=O)O)c(C)s3)CC[C@]3(C)[C@H](CC[C@@H]4[C@@]5(C)CC=C(c6ccc(C(=O)O)cc6)C(C)(C)[C@@H]5CC[C@]43C)[C@@H]12` [Example 47, 2-((1R,3aS,5aR,5bR,7aR,11aS,11bR,13aR,13bR)-9-(4-carboxyphenyl)-5a,5b,8,8,11a-pentamethyl-1-(prop-1-en-2-yl)-2,3,3a,4,5,5a,5b,6,7,7a,8,11,11a,11b,12,13,13a,13b-octadecahydro-1H-cyclopenta[a]chrysene-3a-carboxamido)-5-methylthiazole-4-carboxylic acid]: the EC50 was determined as 8.7 nM.

With `C=C(C)[C@@H]1CC[C@]2(C(=O)NCc3cccs3)CC[C@]3(C)[C@H](CC[C@@H]4[C@@]5(C)CC=C(c6ccc(C(=O)O)cc6)C(C)(C)[C@@H]5CC[C@]43C)[C@@H]12` [Example 42, 4-((1R,3aS,5aR,5bR,7aR,11aS,11bR,13aR,13bR)-5a,5b,8,8,11a-pentamethyl-1-(prop-1-en-2-yl)-3a-(thiophen-2-ylmethylcarbamoyl)-2,3,3a,4,5,5a,5b,6,7,7a,8,11,11a,11b,12,13,13a,13b-octadecahydro-1H-cyclopenta[a]chrysen-9-yl)benzoic acid], the EC50 worked out at 120 nM.

Consider `C=C(C)[C@@H]1CC[C@]2(C(=O)N3CCCC(C(=O)N(CC)CC)C3)CC[C@]3(C)[C@H](CC[C@@H]4[C@@]5(C)CC=C(c6ccc(C(=O)O)cc6)C(C)(C)[C@@H]5CC[C@]43C)[C@@H]12` (stereo partly drawn) [Example 11, 4-((1R,3aS,5aR,5bR,7aR,11aS,11bR,13aR,13bR)-3a-(3-(diethylcarbamoyl)piperidine-1-carbonyl)-5a,5b,8,8,11a-pentamethyl-1-(prop-1-en-2-yl)-2,3,3a,4,5,5a,5b,6,7,7a,8,11,11a,11b,12,13,13a,13b-octadecahydro-1H-cyclopenta[a]chrysen-9-yl)benzoic acid], for which the EC50 came out at 61 nM.

The same experiment, now with this note: NL43, read-out: EC50 Group.
Consider `C=C(C)[C@@H]1CC[C@]2(C(=O)NS(C)(=O)=O)CC[C@]3(C)[C@H](CC[C@@H]4[C@@]5(C)CC=C(c6ccc(C(=O)O)cc6)C(C)(C)[C@@H]5CC[C@]43C)[C@@H]12` [Example 8, 4-((1R,3aS,5aR,5bR,7aR,11aS,11bR,13aR,13bR)-5a,5b,8,8,11a-pentamethyl-3a-(methylsulfonylcarbamoyl)-1-(prop-1-en-2-yl)-2,3,3a,4,5,5a,5b,6,7,7a,8,11,11a,11b,12,13,13a,13b-octadecahydro-1H-cyclopenta[a]chrysen-9-yl)benzoic acid], for which the EC50 is < 100 nM. Still for that read-out and setting: next, `C=C(C)[C@@H]1CC[C@]2(C(=O)NCCN(CC)CC(=O)O)CC[C@]3(C)[C@H](CC[C@@H]4[C@@]5(C)CC=C(c6ccc(C(=O)O)cc6)C(C)(C)[C@@H]5CC[C@]43C)[C@@H]12` [Example 83, 4-((1R,3aS,5aR,5bR,7aR,11aS,11bR,13aR,13bR)-3a-(2-((carboxymethyl)(ethyl)amino)ethylcarbamoyl)-5a,5b,8,8,11a-pentamethyl-1-(prop-1-en-2-yl)-2,3,3a,4,5,5a,5b,6,7,7a,8,11,11a,11b,12,13,13a,13b-octadecahydro-1H-cyclopenta[a]chrysen-9-yl)benzoic acid]: < 100 nM; `C=C(C)[C@@H]1CC[C@]2(C(=O)NCCCN(C)C)CC[C@]3(C)[C@H](CC[C@@H]4[C@@]5(C)CC=C(c6ccc(C(=O)O)cc6)C(C)(C)[C@@H]5CC[C@]43C)[C@@H]12` [Example 27, 4-((1R,3aS,5aR,5bR,7aR,11aS,11bR,13aR,13bR)-3a-(3-(dimethylamino)propylcarbamoyl)-5a,5b,8,8,11a-pentamethyl-1-(prop-1-en-2-yl)-2,3,3a,4,5,5a,5b,6,7,7a,8,11,11a,11b,12,13,13a,13b-octadecahydro-1H-cyclopenta[a]chrysen-9-yl)benzoic acid]: < 100 nM. On the same count and under the same terms, with `C=C(C)[C@@H]1CC[C@]2(C(=O)NCCN(C)C)CC[C@]3(C)[C@H](CC[C@@H]4[C@@]5(C)CC=C(c6ccc(C(=O)O)cc6)C(C)(C)[C@@H]5CC[C@]43C)[C@@H]12` [Example 16, 4-((1R,3aS,5aR,5bR,7aR,11aS,11bR,13aR,13bR)-3a-(2-(dimethylamino)ethylcarbamoyl)-5a,5b,8,8,11a-pentamethyl-1-(prop-1-en-2-yl)-2,3,3a,4,5,5a,5b,6,7,7a,8,11,11a,11b,12,13,13a,13b-octadecahydro-1H-cyclopenta[a]chrysen-9-yl)benzoic acid] the figure was < 100 nM; with `C=C(C)[C@@H]1CC[C@]2(C(=O)NCC3CCCN3CC)CC[C@]3(C)[C@H](CC[C@@H]4[C@@]5(C)CC=C(c6ccc(C(=O)O)cc6)C(C)(C)[C@@H]5CC[C@]43C)[C@@H]12` (stereo partly drawn) [Example 39, 4-((1R,3aS,5aR,5bR,7aR,11aS,11bR,13aR,13bR)-3a-((1-ethylpyrrolidin-2-yl)methylcarbamoyl)-5a,5b,8,8,11a-pentamethyl-1-(prop-1-en-2-yl)-2,3,3a,4,5,5a,5b,6,7,7a,8,11,11a,11b,12,13,13a,13b-octadecahydro-1H-cyclopenta[a]chrysen-9-yl)benzoic acid], < 100 nM. The same measure, in the same setting: with `C=C(C)[C@@H]1CC[C@]2(C(=O)NCCN(C)CCO)CC[C@]3(C)[C@H](CC[C@@H]4[C@@]5(C)CC=C(c6ccc(C(=O)O)cc6)C(C)(C)[C@@H]5CC[C@]43C)[C@@H]12` [Example 73, 4-((1R,3aS,5aR,5bR,7aR,11aS,11bR,13aR,13bR)-3a-(2-((2-hydroxyethyl)(methyl)amino)ethylcarbamoyl)-5a,5b,8,8,11a-pentamethyl-1-(prop-1-en-2-yl)-2,3,3a,4,5,5a,5b,6,7,7a,8,11,11a,11b,12,13,13a,13b-octadecahydro-1H-cyclopenta[a]chrysen-9-yl)benzoic acid] the figure was < 100 nM; with `C=C(C)[C@@H]1CC[C@]2(C(=O)Nc3ncc(C)s3)CC[C@]3(C)[C@H](CC[C@@H]4[C@@]5(C)CC=C(c6ccc(C(=O)O)cc6)C(C)(C)[C@@H]5CC[C@]43C)[C@@H]12` [Example 48, 4-((1R,3aS,5aR,5bR,7aR,11aS,11bR,13aR,13bR)-5a,5b,8,8,11a-pentamethyl-3a-(5-methylthiazol-2-ylcarbamoyl)-1-(prop-1-en-2-yl)-2,3,3a,4,5,5a,5b,6,7,7a,8,11,11a,11b,12,13,13a,13b-octadecahydro-1H-cyclopenta[a]chrysen-9-yl)benzoic acid], < 100 nM; with `C=C(C)[C@@H]1CC[C@]2(C(=O)NCCCN3CCS(=O)(=O)CC3)CC[C@]3(C)[C@H](CC[C@@H]4[C@@]5(C)CC=C(c6ccc(C(=O)O)cc6F)C(C)(C)[C@@H]5CC[C@]43C)[C@@H]12` [Example 109, 4-((1R,3aS,5aR,5bR,7aR,11aS,11bR,13aR,13bR)-3a-((3-(1,1-dioxido-4-thiomorpholinyl)propyl)carbamoyl)-1-isopropenyl-5a,5b,8,8,11a-pentamethyl-2,3,3a,4,5,5a,5b,6,7,7a,8,11,11a,11b,12,13,13a,13b-octadecahydro-1H-cyclopenta[a]chrysen-9-yl)-3-fluorobenzoic acid], < 100 nM. Take `C=C(C)[C@@H]1CC[C@]2(C(=O)Nc3ncc(C(=O)O)s3)CC[C@]3(C)[C@H](CC[C@@H]4[C@@]5(C)CC=C(c6ccc(C(=O)O)cc6)C(C)(C)[C@@H]5CC[C@]43C)[C@@H]12` [Example 50, 2-((1R,3aS,5aR,5bR,7aR,11aS,11bR,13aR,13bR)-9-(4-carboxyphenyl)-5a,5b,8,8,11a-pentamethyl-1-(prop-1-en-2-yl)-2,3,3a,4,5,5a,5b,6,7,7a,8,11,11a,11b,12,13,13a,13b-octadecahydro-1H-cyclopenta[a]chrysene-3a-carboxamido)thiazole-5-carboxylic acid]: the EC50 was < 100 nM. Same read-out and setting: with `C=C(C)[C@@H]1CC[C@]2(C(=O)NCCC(=O)N3CCCC3C(=O)O)CC[C@]3(C)[C@H](CC[C@@H]4[C@@]5(C)CC=C(c6ccc(C(=O)O)cc6)C(C)(C)[C@@H]5CC[C@]43C)[C@@H]12` (stereo partly drawn) [Example 127, 1-(3-((1R,3aS,5aR,5bR,7aR,11aS,11bR,13aR,13bR)-9-(4-carboxyphenyl)-5a,5b,8,8,11a-pentamethyl-1-(prop-1-en-2-yl)-2,3,3a,4,5,5a,5b,6,7,7a,8,11,11a,11b,12,13,13a,13b-octadecahydro-1H-cyclopenta[a]chrysene-3a-carboxamido)propanoyl)pyrrolidine-2-carboxylic acid] the figure was < 100 nM; with `C=C(C)[C@@H]1CC[C@]2(C(=O)NCCN(CCC)CC(=O)O)CC[C@]3(C)[C@H](CC[C@@H]4[C@@]5(C)CC=C(c6ccc(C(=O)O)cc6)C(C)(C)[C@@H]5CC[C@]43C)[C@@H]12` [Example 94, 4-((1R,3aS,5aR,5bR,7aR,11aS,11bR,13aR,13bR)-3a-(2-((carboxymethyl)(propyl)amino)ethylcarbamoyl)-5a,5b,8,8,11a-pentamethyl-1-(prop-1-en-2-yl)-2,3,3a,4,5,5a,5b,6,7,7a,8,11,11a,11b,12,13,13a,13b-octadecahydro-1H-cyclopenta[a]chrysen-9-yl)benzoic acid], < 100 nM. The same measure, in the same setting: with `C=C(C)[C@@H]1CC[C@]2(C(=O)NS(=O)(=O)C3CC3)CC[C@]3(C)[C@H](CC[C@@H]4[C@@]5(C)CC=C(c6ccc(C(=O)O)cc6)C(C)(C)[C@@H]5CC[C@]43C)[C@@H]12` [Example 6, 4-((1R,3aS,5aR,5bR,7aR,11aS,11bR,13aR,13bR)-3a-(cyclopropylsulfonylcarbamoyl)-5a,5b,8,8,11a-pentamethyl-1-(prop-1-en-2-yl)-2,3,3a,4,5,5a,5b,6,7,7a,8,11,11a,11b,12,13,13a,13b-octadecahydro-1H-cyclopenta[a]chrysen-9-yl)benzoic acid] the figure was < 100 nM.

The term EC50 denotes the concentration at which the effect is half-maximal.

The values are drawn from US8802661B2, “C-28 amides of modified C-3 betulinic acid derivatives as HIV maturation inhibitors” (priority 2010, dated 2014).
